Experimental data as given in the supplement of paper PMC7214452.
Counter-ions that a name gives are not always drawn.

Assays:
Experiment in all cases: normalized area under the dose-response curve (viability relative to DMSO control) (fraction); higher = less sensitive (more viable cells)
Conditions in all cases: exposure time not given
[1] = system: AMO1 (cancer type: MM)
Protocol: (§1)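 25 myeloma and 15 non-Hodgkin lymphoma cell lines were exposed to each of 76 drugs as 7-point log dilutions (0.01 nM–10 µM) in duplicate. Viability was read with CellTiter-Glo and normalised to DMSO (0.1%) and staurosporine (10 µM) plate controls. Normalised AUC was calculated by the trapezoidal method relative to the negative control.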

[2] = system: EJM (cancer type: MM)
Protocol: as §1

[3] = system: FR4 (cancer type: MM)
Protocol: as §1

[4] = system: Granta-519 (cancer type: Mantle)
Protocol: as §1

[5] = system: HuT 78 (cancer type: TCL)
Protocol: as §1

[6] = system: JJN3 (cancer type: MM)
Protocol: as §1

[7] = system: JVM2 (cancer type: Mantle)
Protocol: as §1

[8] = system: JeKo-1 (cancer type: Mantle)
Protocol: as §1

[9] = system: KMS11 (cancer type: MM)
Protocol: as §1

[10] = system: KMS12PE (cancer type: MM)
Protocol: as §1

[11] = system: KMS18 (cancer type: MM)
Protocol: as §1

[12] = system: KMS26 (cancer type: MM)
Protocol: as §1

[13] = system: KMS28BM (cancer type: MM)
Protocol: as §1

[14] = system: KMS28PE (cancer type: MM)
Protocol: as §1

[15] = system: KMS34 (cancer type: MM)
Protocol: as §1

[16] = system: Karpas-299 (cancer type: TCL)
Protocol: as §1

[17] = system: L363 (cancer type: MM)
Protocol: as §1

[18] = system: LP1 (cancer type: MM)
Protocol: as §1

[19] = system: MM1.R (cancer type: MM)
Protocol: as §1

[20] = system: MM1.S (cancer type: MM)
Protocol: as §1

[21] = system: Mino (cancer type: Mantle)
Protocol: as §1

[22] = system: My-La (cancer type: TCL)
Protocol: as §1

[23] = system: NCI-H929 (cancer type: MM)
Protocol: as §1

[24] = system: OCI-LY1 (cancer type: DLBCL)
Protocol: as §1

[25] = system: OCI-LY19 (cancer type: DLBCL)
Protocol: as §1

[26] = system: OCI-LY3 (cancer type: DLBCL)
Protocol: as §1

[27] = system: OCI-MY5 (cancer type: MM)
Protocol: as §1

[28] = system: OCI-MY5/CRBN (cancer type: MM)
Protocol: as §1

[29] = system: OCI-MY5/Vec (cancer type: MM)
Protocol: as §1

[30] = system: OCI-MY7 (cancer type: MM)
Protocol: as §1

[31] = system: OPM2 (cancer type: MM)
Protocol: as §1

[32] = system: RPMI 8226 (cancer type: MM)
Protocol: as §1

[33] = system: SKMM2 (cancer type: MM)
Protocol: as §1

[34] = system: SR-786 (cancer type: TCL)
Protocol: as §1

[35] = system: SU-DHL1 (cancer type: TCL)
Protocol: as §1

[36] = system: SU-DHL2 (cancer type: DLBCL)
Protocol: as §1

[37] = system: SU-DHL6 (cancer type: DLBCL)
Protocol: as §1

[38] = system: Se-Ax (cancer type: TCL)
Protocol: as §1

[39] = system: U266 (cancer type: MM)
Protocol: as §1

[40] = system: XG2 (cancer type: MM)
Protocol: as §1

| Compound | normalized area under the dose-response curve [1] | normalized area under the dose-response curve [2] | normalized area under the dose-response curve [3] | normalized area under the dose-response curve [4] | normalized area under the dose-response curve [5] | normalized area under the dose-response curve [6] | normalized area under the dose-response curve [7] | normalized area under the dose-response curve [8] | normalized area under the dose-response curve [9] | normalized area under the dose-response curve [10] | normalized area under the dose-response curve [11] | normalized area under the dose-response curve [12] | normalized area under the dose-response curve [13] | normalized area under the dose-response curve [14] | normalized area under the dose-response curve [15] | normalized area under the dose-response curve [16] | normalized area under the dose-response curve [17] | normalized area under the dose-response curve [18] | normalized area under the dose-response curve [19] | normalized area under the dose-response curve [20] | normalized area under the dose-response curve [21] | normalized area under the dose-response curve [22] | normalized area under the dose-response curve [23] | normalized area under the dose-response curve [24] | normalized area under the dose-response curve [25] | normalized area under the dose-response curve [26] | normalized area under the dose-response curve [27] | normalized area under the dose-response curve [28] | normalized area under the dose-response curve [29] | normalized area under the dose-response curve [30] | normalized area under the dose-response curve [31] | normalized area under the dose-response curve [32] | normalized area under the dose-response curve [33] | normalized area under the dose-response curve [34] | normalized area under the dose-response curve [35] | normalized area under the dose-response curve [36] | normalized area under the dose-response curve [37] | normalized area under the dose-response curve [38] | normalized area under the dose-response curve [39] | normalized area under the dose-response curve [40] |
| --- | --- | --- | --- | --- | --- | --- | --- | --- | --- | --- | --- | --- | --- | --- | --- | --- | --- | --- | --- | --- | --- | --- | --- | --- | --- | --- | --- | --- | --- | --- | --- | --- | --- | --- | --- | --- | --- | --- | --- | --- |
| Cn1c(CCCC(=O)O)nc2cc(N(CCCl)CCCl)ccc21 [Bendamustine hydrochloride] | 0.849 | 0.815 | 0.955 | 0.885 | 0.779 | 0.938 | 0.684 | 0.87 | 0.849 | 0.74 | 0.832 | 0.677 | 0.869 | 0.847 | 0.755 | 0.831 | 0.84 | 0.946 | 0.67 | 0.68 | 0.86 | 0.862 | 0.75 | 0.832 | 0.834 | 0.784 | 0.835 | 0.932 | 0.921 | 0.74 | 0.842 | 0.879 | 0.955 | 0.74 | 0.794 | 0.795 | 0.911 | 0.719 | 0.92 | 0.875 |
| CNC(=O)c1cc(Oc2ccc(NC(=O)Nc3ccc(Cl)c(C(F)(F)F)c3)c(F)c2)ccn1 [Regorafenib] | 0.549 | 0.589 | 0.642 | 0.901 | 0.697 | 0.436 | 0.715 | 0.879 | 0.546 | 0.62 | 0.553 | 0.844 | 0.565 | 0.695 | 0.35 | 0.892 | 0.54 | 0.558 | 0.53 | 0.52 | 0.899 | 0.84 | 0.56 | 1 | 0.96 | 0.964 | 0.468 | 0.927 | 0.848 | 0.58 | 0.594 | 0.543 | 0.636 | 0.91 | 0.57 | 0.955 | 0.916 | 0.684 | 0.48 | 0.481 |
| Nc1nc(Cl)nc2c1ncn2[C@H]1C[C@H](O)[C@@H](CO)O1 [Cladribine] | 0.672 | 0.555 | 1.01 | 0.523 | 0.825 | 0.993 | 0.748 | 0.185 | 0.854 | 0.84 | 0.798 | 0.795 | 0.768 | 0.533 | 0.734 | 0.89 | 0.826 | 0.762 | 0.56 | 0.49 | 0.27 | 0.813 | 0.52 | 0.884 | 0.919 | 0.311 | 0.929 | 0.961 | 0.89 | 0.79 | 0.984 | 0.939 | 0.763 | 0.766 | 0.167 | 0.861 | 0.843 | 0.627 | 0.918 | 0.452 |
| Cc1nc(Nc2ncc(C(=O)Nc3c(C)cccc3Cl)s2)cc(N2CCN(CCO)CC2)n1 [Dasatinib] | 0.72 | 0.702 | 0.816 | 0.783 | 0.768 | 0.581 | 0.611 | 0.778 | 0.686 | 0.48 | 0.765 | 0.868 | 0.994 | 0.731 | 0.612 | 0.875 | 0.813 | 0.712 | 0.76 | 0.75 | 0.745 | 0.841 | 0.74 | 0.66 | 0.718 | 0.727 | 0.701 | 0.824 | 0.79 | 0.82 | 0.802 | 0.739 | 0.906 | 0.843 | 0.862 | 0.894 | 0.754 | 0.82 | 0.616 | 0.746 |
| Cc1cccc(/C=N/Nc2cc(N3CCOCC3)n3nc(-c4ccncc4)cc3n2)c1 [apy0201] | 0.415 | 0.769 | 0.578 | 0.93 | 0.57 | 0.311 | 0.831 | 0.681 | 0.508 | 0.41 | 0.756 | 0.688 | 0.822 | 0.736 | 0.269 | 0.648 | 0.516 | 0.81 | 0.69 | 0.65 | 0.709 | 0.885 | 0.43 | 0.655 | 0.634 | 0.863 | 0.447 | 0.867 | 0.794 | 0.65 | 0.504 | 0.706 | 0.826 | 0.601 | 0.682 | 0.897 | 0.77 | 0.673 | 0.564 | 0.511 |
| Nc1cccc2c1C(=O)N(C1CCC(=O)NC1=O)C2=O (stereo not given) [Pomalidomide] | 0.879 | 0.879 | 0.949 | 0.87 | 0.986 | 0.994 | 0.889 | 0.843 | 0.912 | 0.9 | 0.886 | 0.86 | 0.925 | 0.962 | 0.917 | 0.914 | 0.887 | 0.871 | 0.76 | 0.74 | 0.884 | 0.875 | 0.78 | 0.964 | 0.854 | 0.979 | 0.9 | 0.908 | 0.897 | 0.9 | 0.963 | 0.959 | 0.973 | 0.947 | 0.846 | 0.917 | 0.989 | 0.767 | 0.96 | 0.77 |
| COC(=O)c1ccc2c(c1)NC(=O)/C2=C(\Nc1ccc(N(C)C(=O)CN2CCN(C)CC2)cc1)c1ccccc1 [Nintedanib] | 0.801 | 0.784 | 0.911 | 0.942 | 0.883 | 0.979 | 0.815 | 0.933 | 0.723 | 0.94 | 0.934 | 0.764 | 0.87 | 0.737 | 0.835 | 0.862 | 0.798 | 0.828 | 0.84 | 0.79 | 0.956 | 0.902 | 0.87 | 0.98 | 0.906 | 0.992 | 0.846 | 0.929 | 0.957 | 0.97 | 0.844 | 0.791 | 0.943 | 0.828 | 0.839 | 0.966 | 0.919 | 0.92 | 0.941 | 0.764 |
| Nc1nc(Cl)nc2c1ncn2[C@@H]1O[C@H](CO)[C@@H](O)[C@@H]1F [Clofarabine] | 0.489 | 0.477 | 0.973 | 0.35 | 0.727 | 0.559 | 0.594 | 0.138 | 0.578 | 0.66 | 0.794 | 0.592 | 0.617 | 0.422 | 0.536 | 0.759 | 0.667 | 0.686 | 0.45 | 0.36 | 0.274 | 0.685 | 0.43 | 0.5 | 0.472 | 0.119 | 0.915 | 0.927 | 0.807 | 0.74 | 0.871 | 0.727 | 0.728 | 0.851 | 0.236 | 0.662 | 0.573 | 0.451 | 0.595 | 0.346 |
